According to PubChem BioAssay AID328 (DTP/NCI, 2004):
Where “and” joins values, the source holds several entries; their conditions need not be identical. Identical values can stand only once. Toxic doses and inconclusive results are not listed. Rule for the calls: active = survival T/C of 150% or more; inactive = T/C below 125% in these data.

System: BDF1 mice, P388 leukemia ip, median survival T/C
Assay: NCI In Vivo Anticancer Drug Screen. Data for tumor model P388 Leukemia (intraperitoneal) in B6D2F1 (BDF1) mice
Details: endpoint: median survival time, higher = longer survival
Protocol: The antitumor activity of compounds was measured in mice bearing transplantable tumors. Survival or tumor size were measured and the results are expressed as the measurement made in the treated group (T) divided by the measurement made in the vehicle treated control group (C). The tumor model used in this assay is P388 Leukemia (intraperitoneal) in B6D2F1 (BDF1) mice

[1] = dose: 100.0 mg/kg/injection, schedule: Q01DX009 (ip), vehicle: Klucel (hydroxypropylcellulose) (HPC)
[2] = dose: 200.0 mg/kg/injection, schedule: Q01DX009 (ip), vehicle: Klucel (hydroxypropylcellulose) (HPC)
[3] = dose: 12.5 mg/kg/injection, schedule: Q01DX009 (ip), vehicle: Klucel (hydroxypropylcellulose) (HPC)
[4] = dose: 100.0 mg/kg/injection, schedule: Q01DX009 (ip), vehicle: other
[5] = dose: 100.0 mg/kg/injection, schedule: Q04DX003 (ip), vehicle: saline with Tween-80
[6] = dose: 200.0 mg/kg/injection, schedule: Q04DX003 (ip), vehicle: saline with Tween-80
[7] = dose: 400.0 mg/kg/injection, schedule: Q04DX003 (ip), vehicle: saline with Tween-80
[8] = dose: 25.0 mg/kg/injection, schedule: Q04DX003 (ip), vehicle: saline with Tween-80
[9] = dose: 50.0 mg/kg/injection, schedule: Q04DX003 (ip), vehicle: saline with Tween-80
[10] = dose: 25.0 mg/kg/injection, schedule: Q01DX009 (ip), vehicle: saline with Tween-80
[11] = dose: 50.0 mg/kg/injection, schedule: Q01DX009 (ip), vehicle: saline with Tween-80
[12] = dose: 50.0 mg/kg/injection, schedule: Q01DX009 (ip), vehicle: saline
[13] = dose: 100.0 mg/kg/injection, schedule: Q01DX009 (ip), vehicle: saline with Tween-80
[14] = dose: 200.0 mg/kg/injection, schedule: Q01DX009 (ip), vehicle: saline with Tween-80

Measured: T/C

CCC(C)C1NC(=O)C(NC(=O)c2c3nc4c(C(=O)NC5C(=O)NC(C(C)CC)C(=O)N6CCCC6C(=O)N(C)CC(=O)N(C)C(C(C)C)C(=O)OC5C)cc([N+](=O)[O-])c(C)c4oc-3c(C)c(=O)c2N)C(C)OC(=O)C(C(C)C)N(C)C(=O)CN(C)C(=O)C2CCCN2C1=O (centres undefined)
inactive: dose: 2.4 mg/kg/injection, schedule: Q04DX003 (ip), vehicle: saline + alcohol 116 % of control | dose: 400.0 micrograms/kg/injection, schedule: Q01DX009 (ip), vehicle: saline + alcohol 118 % of control
active: dose: 0.15 mg/kg/injection, schedule: Q04DX003 (ip), vehicle: saline + alcohol 197 % of control | dose: 0.3 mg/kg/injection, schedule: Q04DX003 (ip), vehicle: saline + alcohol 157 % of control and 216 % of control | dose: 0.6 mg/kg/injection, schedule: Q04DX003 (ip), vehicle: saline + alcohol 229 % of control and 221 % of control | dose: 1.2 mg/kg/injection, schedule: Q04DX003 (ip), vehicle: saline + alcohol 270 % of control and 177 % of control | dose: 50.0 micrograms/kg/injection, schedule: Q01DX009 (ip), vehicle: saline + alcohol 173 % of control | dose: 100.0 micrograms/kg/injection, schedule: Q01DX009 (ip), vehicle: saline + alcohol 197 % of control | dose: 200.0 micrograms/kg/injection, schedule: Q01DX009 (ip), vehicle: saline + alcohol 312 % of control

CCCCn1c2nc(=O)[nH]c(=O)c-2[n+]([O-])c2ccccc21
inactive: dose: 100.0 mg/kg/injection, schedule: Q01DX001 (ip), vehicle: saline with Tween-80 108 % of control

O=C(/C=C/C(=O)Oc1ccccc1)Oc1ccccc1
inactive: [1] 90 % of control | [2] 109 % of control | dose: 400.0 mg/kg/injection, schedule: Q01DX009 (ip), vehicle: Klucel (hydroxypropylcellulose) (HPC) 90 % of control

CN(C)Cc1ccc(-c2cc3onc(-c4ccccc4)c3c(=O)n2C)cc1
inactive: dose: 50.0 mg/kg/injection, schedule: Q01DX005 (ip), vehicle: saline with Tween-80 108 % of control | dose: 100.0 mg/kg/injection, schedule: Q01DX005 (ip), vehicle: saline with Tween-80 94 % of control | dose: 200.0 mg/kg/injection, schedule: Q01DX005 (ip), vehicle: saline with Tween-80 97 % of control

Nc1ccc(S(=O)(=O)c2cc(O)c3ccccc3c2O)cc1
inactive: dose: 6.25 mg/kg/injection, schedule: Q01DX009 (ip), vehicle: Klucel (hydroxypropylcellulose) (HPC) 118 % of control | [3] 104 % of control | dose: 25.0 mg/kg/injection, schedule: Q01DX009 (ip), vehicle: Klucel (hydroxypropylcellulose) (HPC) 122 % of control

CCCCCCCCCC(O)CCCCCC (centres undefined)
inactive: [4] 105 % of control | dose: 100.0 mg/kg/injection, schedule: Q04DX003 (ip), vehicle: other 95 % of control | dose: 200.0 mg/kg/injection, schedule: Q04DX003 (ip), vehicle: other 118 % of control

CCCCCCCCCCCCCCCCCCNC(=O)Nc1ccc(C)c(C)c1
inactive: [5] 109 % of control | [6] 109 % of control | [7] 109 % of control

C/C=C1\CN(C(=O)C(NC(=O)C(N)C(O)C(O)COC(N)=O)C2OC(n3cc(C(=O)O)c(=O)[nH]c3=O)C(O)C2O)C1C(=O)O (centres undefined) (tested in a mixture with another compound)
inactive: dose: 100.0 mg/kg/injection, schedule: Q01DX008 (ip), vehicle: saline 90 % of control | dose: 200.0 mg/kg/injection, schedule: Q01DX008 (ip), vehicle: saline 100 % of control

COc1ccc2c(c1)CC(=CO)CC2=O.COc1ccc2c(c1)CC/C(=C/O)C2=O.[Cu]
inactive: [8] 100 % of control | [9] 110 % of control | [5] 90 % of control

CCC1=CC(C(O)CC(C)C)C(C)(Cc2ccc(CC)cn2)NC1c1ccccc1 (centres undefined)
inactive: dose: 25.0 mg/kg/injection, schedule: Q04DX002 (ip), vehicle: saline with Tween-80 101 % of control | dose: 50.0 mg/kg/injection, schedule: Q04DX002 (ip), vehicle: saline with Tween-80 106 % of control

CN1CCCC1c1cccnc1 (centres undefined)
inactive: dose: 3.13 mg/kg/injection, schedule: Q01DX009 (ip), vehicle: saline 109 % of control | dose: 6.25 mg/kg/injection, schedule: Q01DX009 (ip), vehicle: saline 109 % of control

N#CC(C#N)=c1ccc(=C(C#N)C#N)cc1
inactive: [10] 108 % of control | [8] 88 % of control | [11] 108 % of control | [9] 92 % of control | [5] 111 % of control

COc1ccc(C(=O)CC(c2ccc(OC)c(OC)c2)c2c(O)c3ccccc3oc2=O)cc1OC (centres undefined)
inactive: dose: 12.5 mg/kg/injection, schedule: Q01DX009 (ip), vehicle: saline 101 % of control | dose: 25.0 mg/kg/injection, schedule: Q01DX009 (ip), vehicle: saline 111 % of control | [12] 101 % of control | dose: 100.0 mg/kg/injection, schedule: Q01DX009 (ip), vehicle: saline 109 % of control | dose: 200.0 mg/kg/injection, schedule: Q01DX009 (ip), vehicle: saline 93 % of control

O=C1c2ccccc2C(=O)c2c(O)c(N3CCOCC3)cc(O)c21
inactive: dose: 1.0 mg/kg/injection, schedule: Q01DX009 (ip), vehicle: water 121 % of control | dose: 2.0 mg/kg/injection, schedule: Q01DX009 (ip), vehicle: water 104 % of control | dose: 4.0 mg/kg/injection, schedule: Q01DX009 (ip), vehicle: water 104 % of control | dose: 8.0 mg/kg/injection, schedule: Q01DX009 (ip), vehicle: water 89 % of control | dose: 16.0 mg/kg/injection, schedule: Q01DX009 (ip), vehicle: water 111 % of control | dose: 32.0 mg/kg/injection, schedule: Q01DX009 (ip), vehicle: water 113 % of control | [12] 90 % of control

Cc1ccc(C)c(CCO)c1
inactive: dose: 45.0 mg/kg/injection, schedule: Q01DX009 (ip), vehicle: other 105 % of control | dose: 50.0 mg/kg/injection, schedule: Q01DX009 (ip), vehicle: Klucel (hydroxypropylcellulose) (HPC) 108 % of control | dose: 65.0 mg/kg/injection, schedule: Q01DX009 (ip), vehicle: other 100 % of control | [1] 100 % of control | [4] 100 % of control | [5] 109 % of control | dose: 150.0 mg/kg/injection, schedule: Q01DX009 (ip), vehicle: other 105 % of control | [2] 112 % of control | dose: 200.0 mg/kg/injection, schedule: Q01DX009 (ip), vehicle: other 104 % of control and 120 % of control | [6] 109 % of control

CCC(c1ccc2cc(OC)ccc2c1)C(C)(C)C(=O)F (centres undefined)
inactive: [3] 116 % of control | dose: 33.0 mg/kg/injection, schedule: Q01DX009 (ip), vehicle: Klucel (hydroxypropylcellulose) (HPC) 104 % of control | dose: 75.0 mg/kg/injection, schedule: Q01DX009 (ip), vehicle: Klucel (hydroxypropylcellulose) (HPC) 113 % of control

CC(=O)SCCNCCNC1CC2CCC1C2 (centres undefined)
inactive: dose: 5.75 mg/kg/injection, schedule: Q01DX009 (ip), vehicle: saline 104 % of control | dose: 11.5 mg/kg/injection, schedule: Q01DX009 (ip), vehicle: saline 104 % of control

C1=CN(c2ccc(/C=C\c3ccnc4ccccc34)cc2)C=CN1c1ccc(/C=C\c2ccnc3ccccc23)cc1
inactive: [11] 119 % of control

OCCN(CCO)c1cc(/C=C/c2ccnc3ccccc23)nc2ccccc12
inactive: [11] 89 % of control | [13] 89 % of control | [14] 91 % of control

COC1OC2COC(c3ccccc3)OC2C2OC12 (centres undefined)
inactive: dose: 6.25 mg/kg/injection, schedule: Q01DX009 (ip), vehicle: saline with Tween-80 109 % of control | dose: 12.5 mg/kg/injection, schedule: Q01DX009 (ip), vehicle: saline with Tween-80 99 % of control | [10] 96 % of control | [11] 100 % of control | [5] 109 % of control | [6] 100 % of control | [7] 100 % of control

CC1(C)OCC(C2OC3OC(C)(C)OC3C2OP(=O)(N2CC2)N2CC2)O1 (centres undefined)
inactive: [11] 103 % of control | [13] 115 % of control | [14] 123 % of control

C/C=C1/C[C@@H](C)[C@@](C)(O)C(=O)OCC2=CCN3CC[C@@H](OC1=O)[C@@H]23
inactive: dose: 7.5 mg/kg/injection, schedule: Q01DX010 (ip), vehicle: steriod suspending solution 109 % of control | dose: 15.0 mg/kg/injection, schedule: Q01DX010 (ip), vehicle: steriod suspending solution 100 % of control | dose: 30.0 mg/kg/injection, schedule: Q01DX010 (ip), vehicle: steriod suspending solution 100 % of control | dose: 60.0 mg/kg/injection, schedule: Q01DX010 (ip), vehicle: steriod suspending solution 95 % of control and 109 % of control
